Laboratory results: PMC7037862, “Tricyclic Nucleobase Analogs and Their Ribosides as Substrates and Inhibitors of Purine-Nucleoside Phosphorylases III. Aminopurine Derivatives” (Molecules, 2020)
Changes are numbered by the printed parent chain. In names and notes the source's numbering stands. Like-named read-outs stand apart in the source and are kept apart here.

Tests used:
[1] = Ionization constants (pKa), determined spectrophotometrically; assay type: physicochemical; conditions: phosphate and/or acetate buffers
Protocol: Fluorescence spectra were measured on a Varian Eclipse instrument (Varian Corp., Palo Alto, CA, USA), and UV absorption kinetic experiments were performed on a Cary 5000 (Varian Corp., Palo Alto, CA, USA) thermostated spectrophotometer. Fluorescence yields were determined relative to tryptophan (0.15) or 1,N^6-ethenoadenosine in water (0.56, see ref. [2]). Emission spectra were measured in semi-micro cuvettes, pathlength 4 mm, to diminish the inner-filter effect. Typical spectral resolution was 2.5 nm. The ionization constants (pKa values) were determined spectrophotometrically using 20–50 mM phosphate and/or acetate buffers.

calf spleen PNP (wt) = target: T1, calf spleen PNP (wt) (Bos taurus, UniProt P55859); test: Enzymatic ribosylation with α-D-ribose-1-phosphate, calf PNP wild type; assay type: biochemical; conditions: for Vmax (Relative): ribosylation, relative to guanine ribosylation rate (=100); for ribosylation activity: trimeric calf spleen PNP, wild type
T1 construct: made in house; host or cells: E. coli
T1 sequence (P55859 1-289): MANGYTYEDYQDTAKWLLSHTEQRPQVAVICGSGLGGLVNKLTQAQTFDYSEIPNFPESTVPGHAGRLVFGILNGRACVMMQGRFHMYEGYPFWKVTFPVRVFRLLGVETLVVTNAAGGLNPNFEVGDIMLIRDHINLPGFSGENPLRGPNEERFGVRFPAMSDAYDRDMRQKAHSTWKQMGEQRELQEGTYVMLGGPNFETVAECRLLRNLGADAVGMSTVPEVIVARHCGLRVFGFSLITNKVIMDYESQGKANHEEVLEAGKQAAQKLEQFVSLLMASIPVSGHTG
Protocol: (§1) Recombinant E. coli PNP, calf spleen PNP, and their mutated forms were expressed in E. coli and purified according to the procedures described earlier. Enzyme concentrations were calculated per monomer.
(§2) Enzymatic ribosylation reactions were carried out in 1 mL cuvettes (pathlength 4 mm) in ~50 mM HEPES buffer, pH 7.3, using 0.5 mM R1P as a ribose source. Reactions were followed fluorimetrically (see Section 2.4). On a larger scale (2–4 mg), the reactions were run in Eppendorf tubes, volume 2–3 mL, using either R1P (3–10 mM) or 7-methylguanosine as ribose sources. Products were purified by semi-preparative HPLC, concentrated and the final solutions kept frozen. Their structure has been confirmed by NMR (see Section 2.4 and Supplementary Materials) and by MS: comp. 3: m/z = 292.10385, comp. 4: m/z = 292.10400, comp. 5: m/z = 292.10398, calculated for C12H13N5O4 + H: 292.10403. Phosphorolysis reactions were run in 40–50 mM phosphate buffer, pH 7.0 or 6.5, and followed spectrally or fluorimetrically. Kinetic parameters were calculated by standard methods.

calf PNP N243D = target: T2, calf PNP N243D (Bos taurus, UniProt P55859, N243D); test: Enzymatic ribosylation with α-D-ribose-1-phosphate, calf PNP N243D mutant; assay type: biochemical; conditions: for Vmax (Relative): ribosylation, relative to guanine ribosylation rate (=100)
T2 construct: made in house; host or cells: E. coli
T2 sequence (P55859 1-289 N243D): T1 sequence (P55859 1-289) with N243D
Protocol: as §1, §2

E. coli PNP-wt [2] = target: T3, E. coli PNP-wt (Escherichia coli, UniProt P0ABP8); test: Enzymatic ribosylation with α-D-ribose-1-phosphate, E. coli PNP wild type; assay type: biochemical; conditions: for Vmax (Relative): ribosylation, relative to guanine ribosylation rate (=100)
T3 construct: made in house; host or cells: E. coli
T3 sequence (P0ABP8 2-239 limits assumed): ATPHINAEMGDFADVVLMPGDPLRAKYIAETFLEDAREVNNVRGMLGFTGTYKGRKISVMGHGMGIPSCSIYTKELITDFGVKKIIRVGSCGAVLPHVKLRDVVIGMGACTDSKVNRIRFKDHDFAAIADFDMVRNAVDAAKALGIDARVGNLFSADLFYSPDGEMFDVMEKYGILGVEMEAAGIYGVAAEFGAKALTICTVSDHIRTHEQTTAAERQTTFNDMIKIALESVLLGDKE
Protocol: as §1, §2

E. coli PNP D204N = target: T4, E. coli PNP D204N (Escherichia coli, UniProt P0ABP8, D205N); test: Enzymatic ribosylation with α-D-ribose-1-phosphate, E. coli PNP D204N mutant; assay type: biochemical
T4 construct: made in house; host or cells: E. coli
Protocol: as §1, §2

E. coli PNP S90A = target: T5, E. coli PNP S90A (Escherichia coli, UniProt P0ABP8, S91A); test: Enzymatic ribosylation with α-D-ribose-1-phosphate, E. coli PNP S90A mutant; assay type: biochemical
T5 construct: made in house; host or cells: E. coli
Protocol: as §1, §2

E. coli PNP = target: T6, E. coli PNP (Escherichia coli, UniProt P0ABP8); test: Fluorescence titration of E. coli PNP with ligand (enzyme-ligand complexes); assay type: binding; conditions: in the presence of phosphate, 40 mM, pH 7, 20 °C
T6 construct: made in house; host or cells: E. coli
Protocol: Additionally, the fluorescence excitation spectra reveal fluorescence energy transfer (FRET) from the protein to the complexed ligand, since they show marked enhancement in the region 270–280 nm, where the tyrosine residues of the PNP molecule absorb (Figure 10).
Figure 10 Changes in fluorescence excitation (a) and emission spectra (b), observed during the titration of E. coli PNP with N^2,3-etheno-2-aminopurine (2). […] Spectra of the free ligand (3.5 μM) are given for comparison (points). Excitation spectrum of the protein, monitored at 310 nm, is given in black. Conditions: 40 mM phosphate, pH 7, at 20 °C. Concentration of protein was 10.1 μM (per subunit); that of the titrant was 0 to 3.5 μM. Lower panels: Fluorescence difference spectra, calculated from data presented on panels (a) and (b), (c) difference excitation (observed at 380 nm), (d) difference emission spectra, excited at 275 nm. Substrate concentrations are 0.17, 0.69, 1.37, 2.36 and 3.31 μM.
Etheno-tubercidine (6) forms somewhat similar fluorescent complexes with the E. coli PNP. As shown below, FRET from the protein to the ligand is evident in the excitation spectra (Figure 11), and the ligand fluorescence blue shifted from 415 to ca. 390 nm (Figure 11b,c). In this case more than 60% of protein fluorescence is quenched when protein binding sites are saturated (cf. Figure 11). […]

E. coli PNP-wt [3] = target: T3, E. coli PNP-wt; test: Enzymatic phosphorolysis of ribosides, E. coli PNP wild type; assay type: biochemical; conditions: for Vmax (Relative): relative to Vmax of guanosine phosphorolysis (=100)
Protocol: as §1, §2

calf PNP-wt = target: T7, calf PNP-wt (Bos taurus, UniProt P55859); test: Enzymatic phosphorolysis of ribosides, calf PNP wild type; assay type: biochemical; conditions: for Km: 40 mM phosphate buffer pH 7; for Vmax (Relative): relative to Vmax of guanosine phosphorolysis (=100)
T7 construct: made in house; host or cells: E. coli
T7 sequence (P55859 1-289): T1 sequence (P55859 1-289)
Protocol: as §1, §2

[4] = substrate: c1cn2c(n1)ncc1nc[nH]c12; test: Enzymatic ribosylation with α-D-ribose-1-phosphate, calf PNP wild type; assay type: biochemical; conditions: other: ribosylation by R1P, calf-wt PNP, 40 mM HEPES pH 7
Protocol: as §1, §2

[5] = substrate: c1cn2c(n1)ncc1nc[nH]c12; test: Enzymatic ribosylation with α-D-ribose-1-phosphate, calf PNP N243D mutant; assay type: biochemical; conditions: other: ribosylation by R1P, 40 mM HEPES pH 7
Protocol: as §1, §2

[6] = substrate: c1cn2c(n1)ncc1nc[nH]c12; test: Enzymatic ribosylation with α-D-ribose-1-phosphate, E. coli PNP wild type; assay type: biochemical
Protocol: as §1, §2

[7] = substrate: OC[C@H]1O[C@@H](n2ccn3c4ncnc-4cnc23)[C@H](O)[C@@H]1O; test: Enzymatic phosphorolysis of ribosides, E. coli PNP wild type; assay type: biochemical; conditions: other: phosphorolysis, E. coli PNP-wt, 40 mM phosphate buffer pH 7
Protocol: as §1, §2

[8] = substrate: OC[C@H]1O[C@@H](n2ccn3cc4ncnc-4nc23)[C@H](O)[C@@H]1O; test: as above; assay type: biochemical; conditions: other: phosphorolysis, E. coli PNP-wt, 40 mM phosphate buffer pH 7
Protocol: as §1, §2

[9] = acidic dissociation, read-out: pKa (acidic dissociation of the imidazole proton)
[10] = protonation, read-out: pKa (protonation)
[11] = ribosylation by R1P, 40 mM HEPES pH 7
[12] = ribosylation, relative to guanine ribosylation rate (=100)

c1cn2cc3nc[nH]c3nc2n1 [Compound 1, 1,N^2-etheno-2-aminopurine]
pKa [1, 9]: 8.2 | pKa [1, 10]: 5.6 | Km (calf spleen PNP (wt); ribosylation by R1P, calf-wt PNP, 40 mM HEPES pH 7): nr | Vmax (Relative) (calf spleen PNP (wt); calf-wt PNP): < 0.1 | ribosylation activity (calf spleen PNP (wt)): apparently inactive | Vmax (Relative) (calf PNP N243D; calf PNP N243D): traces | Ribosylation Site (E. coli PNP-wt [2]): mostly N^2 | Km (E. coli PNP-wt [2]; [11]): < 10 µM | Vmax (Relative) (E. coli PNP-wt [2]): ~1

c1cn2c(n1)ncc1nc[nH]c12 [Compound 2, N^2,3-etheno-2-aminopurine]
pKa [1, 9]: ~9.5 | pKa [1, 10]: 5 | Ribosylation Site (calf spleen PNP (wt); calf-wt PNP): predominantly N^2 | Vmax (Relative) (calf spleen PNP (wt); calf-wt PNP): ~5 | ribosylation activity (calf spleen PNP (wt)): moderate rate | Ribosylation Site (calf PNP N243D; calf PNP N243D): predominantly N^2 | ribosylation activity (calf PNP N243D; calf PNP mutated in the active site (N243D)): fairly rapidly ribosylated | Vmax (Relative) (calf PNP N243D; calf PNP N243D): 29 | Ribosylation Site (E. coli PNP-wt [2]): predominantly N^2 | Vmax (Relative) (E. coli PNP-wt [2]): 20 | Ribosylation Site (E. coli PNP D204N): predominantly N^2 | Km (E. coli PNP D204N; [11]): 12 µM | Vmax (Relative) (E. coli PNP D204N; [12]): 30 | Ribosylation Site (E. coli PNP S90A): predominantly N^2 | Km (E. coli PNP S90A; [11]): ~20 µM | Vmax (Relative) (E. coli PNP S90A; [12]): 23 | quenching of the protein fluorescence at 305 nm (E. coli PNP): moderate quenching

OC[C@H]1O[C@@H](n2cnc3cn4ccnc4nc32)[C@H](O)[C@@H]1O [Compound 3, 1,N^2-etheno-2-aminopurine-N^9-β-D-riboside]
Km (E. coli PNP-wt [3]; 40 mM phosphate buffer pH 7): nr | Vmax (Relative) (E. coli PNP-wt [3]): <1 | Km (calf PNP-wt): nr | Vmax (Relative) (calf PNP-wt): <0.1

OC[C@H]1O[C@@H](n2ccn3cc4ncnc-4nc23)[C@H](O)[C@@H]1O [Compound 4, 1,N^2-etheno-2-aminopurine-N^2-β-D-riboside]
pKa [1, 10]: ~6.3 | Vmax (Relative) (E. coli PNP-wt [3]): 4 | Km (calf PNP-wt): nr | Vmax (Relative) (calf PNP-wt): <0.1

OC[C@H]1O[C@@H](n2ccn3c4ncnc-4cnc23)[C@H](O)[C@@H]1O [Compound 5, N^2,3-etheno-2-aminopurine-N^2-β-D-riboside]
pKa [1, 10]: 6.15 | Vmax (Relative) (E. coli PNP-wt [3]): 115 | Vmax (Relative) (calf PNP-wt): 3

B1: calf spleen PNP (wt) (Bos taurus) (protein)
chain: T1 sequence (P55859 1-289)
notes: made in house; host or cells: E. coli
Km [4]: ~8 µM

B2: calf PNP N243D (Bos taurus; N243D) (protein)
chain: T1 sequence (P55859 1-289) with N243D
notes: as for B1
Km [5]: 110 µM

B3: E. coli PNP (wt) (Escherichia coli K-12) (protein)
chain: T3 sequence (P0ABP8 2-239 limits assumed)
notes: as for B1
Km ([6]; other: E. coli PNP and its mutated forms): 10 µM | Km ([6]; other: ribosylation by R1P, E. coli-wt PNP, 40 mM HEPES pH 7, pH 7.0): 11 µM

B4: E. coli PNP-wt (Escherichia coli K-12) (protein)
chain: T3 sequence (P0ABP8 2-239 limits assumed)
notes: as for B1
Km [7]: ~ 20 μM | Km [8]: 47 µM
